Results from the supplement of paper PMC11208160.

assay: recombinant UMI read abundance after kanamycin selection (control-corrected) (log10(CPM+1)); higher = more efficient recombination; extreme values may be limits of the assay; sequences stand for … in AGTGCAGAGAAAATCGGCCAGTTTTCTCTGCCTGCAGTCCGCATGCCGTGGGACCCCTTGGGTTCTAACCTGTTGCCTAGATTTATGCAGCGGACTGCCTTTCTCCCAAAGTGATAAACCGG…AGGTTGGTTTCACT; site = the 11-nt donor
Method: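 Pooled E. coli donor-specificity screen for the IS621 bridge recombinase. Each library member carries a reprogrammed 11-nt donor and a full-length LE bridge RNA expressed in cis from the natural promoter, with a paired donor-binding loop (8-nt LDG + 4-nt RDG) and a target-binding loop fixed to T5. It is co-electroporated with a T5 target plasmid; recombinase is induced with 0.07 mM IPTG and recombinants are selected on kanamycin. UMIs are counted as CPM, averaged over two biological replicates and corrected by the unselected control. Molecule = full bridge RNA written as DNA, built from the T5 scaffold: LDG = donor specificity nt 1-8, RDG = reverse complement of nt 8-11.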
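Note: IS621 bridge recombinase in Escherichia coli cells against a fixed T5 target plasmid.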

Row | Sequence | recombinant UMI read abundance (log10)
1 | AAAACTGCATGGACCGGTTTTCCCGGTAATCCGTATTTGAA (site AAAACTGCTTT) | 0.637
2 | AAAAGATCATGGACCGGTTTTCCCGGTAATCCGTATTTGGA (site AAAAGATCTTC) | 1.94
3 | AAAAGATCATGGACCGGTTTTCCCGGTAATCCGTATTTGGC (site AAAAGATCTGC) | 2.65
4 | AAACACGCATGGACCGGTTTTCCCGGTAATCCGTATTTGGG (site AAACACGCTCC) | 0.227
5 | AAACACGCATGGACCGGTTTTCCCGGTAATCCGTATTTGGG (site AACCACGCTCC) | 0.0138
6 | AAACACGCATGGACCGGTTTTCCCGGTAATCCGTATTTGGG (site AAGCACGCTCC) | 0.0101
7 | AAACACGCATGGACCGGTTTTCCCGGTAATCCGTATTTGGG (site AATCACGCTCC) | 0.0344
8 | AAACAGACATGGACCGGTTTTCCCGGTAATCCGTATTTGGA (site AAACAGACTTC) | 0.991
9 | AAACGAACATGGACCGGTTTTCCCGGTAATCCGTATTTGTC (site AAACGAACTGA) | 1.58
10 | AAACGAACATGGACCGGTTTTCCCGGTAATCCGTATTTGTC (site ACACGAACTGA) | 0.524
11 | AAACGAACATGGACCGGTTTTCCCGGTAATCCGTATTTGTC (site AGACGAACTGA) | 0
12 | AAACGAACATGGACCGGTTTTCCCGGTAATCCGTATTTGTC (site ATACGAACTGA) | 0.767
13 | AAACGAGCATGGACCGGTTTTCCCGGTAATCCGTATTTGAG (site AAACGAGCTCT) | 1.78
14 | AAACGTCCATGGACCGGTTTTCCCGGTAATCCGTATTTGAT (site AAACGTCCTAT) | 0.701
15 | AAACGTCCATGGACCGGTTTTCCCGGTAATCCGTATTTGAT (site AACCGTCCTAT) | 0.00727
16 | AAACGTCCATGGACCGGTTTTCCCGGTAATCCGTATTTGAT (site AAGCGTCCTAT) | 0.266
17 | AAACGTCCATGGACCGGTTTTCCCGGTAATCCGTATTTGAT (site AATCGTCCTAT) | 0.0129
18 | AAAGACCCATGGACCGGTTTTCCCGGTAATCCGTATTTGGT (site AAAGACCCTAC) | 1.02
19 | AAAGCGCCATGGACCGGTTTTCCCGGTAATCCGTATTTGTG (site AAAGCGCCTCA) | 0.207
20 | AAAGCGCCATGGACCGGTTTTCCCGGTAATCCGTATTTGTG (site CAAGCGCCTCA) | 0.017
21 | AAAGCGCCATGGACCGGTTTTCCCGGTAATCCGTATTTGTG (site GAAGCGCCTCA) | 0.0199
22 | AAAGCGCCATGGACCGGTTTTCCCGGTAATCCGTATTTGTG (site TAAGCGCCTCA) | 0.019
23 | AAAGGCTCATGGACCGGTTTTCCCGGTAATCCGTATTTGCG (site AAAGGCTCTCG) | 2.61
24 | AAAGTAACATGGACCGGTTTTCCCGGTAATCCGTATTTGCT (site AAAGTAACTAG) | 2.89

Row | Sequence | recombinant UMI read abundance (log10)
25 | AAAGTAACATGGACCGGTTTTCCCGGTAATCCGTATTTGCT (site AACGTAACTAG) | 2.06
26 | AAAGTAACATGGACCGGTTTTCCCGGTAATCCGTATTTGCT (site AAGGTAACTAG) | 1.66
27 | AAAGTAACATGGACCGGTTTTCCCGGTAATCCGTATTTGCT (site AATGTAACTAG) | 2.1
28 | AAAGTATCATGGACCGGTTTTCCCGGTAATCCGTATTTGCA (site AAAGTATCTTG) | 2.86
29 | AAAGTATCATGGACCGGTTTTCCCGGTAATCCGTATTTGCA (site ACAGTATCTTG) | 2.64
30 | AAAGTATCATGGACCGGTTTTCCCGGTAATCCGTATTTGCA (site AGAGTATCTTG) | 2.83
31 | AAAGTATCATGGACCGGTTTTCCCGGTAATCCGTATTTGCA (site ATAGTATCTTG) | 2.62
32 | AAAGTATCATGGACCGGTTTTCCCGGTAATCCGTATTTGCT (site AAAGTATCTAG) | 2.73
33 | AAAGTATCATGGACCGGTTTTCCCGGTAATCCGTATTTGCT (site ACAGTATCTTG) | 0
34 | AAAGTGTCATGGACCGGTTTTCCCGGTAATCCGTATTTGAC (site AAAGTGTCTGT) | 2.37
35 | AAAGTGTCATGGACCGGTTTTCCCGGTAATCCGTATTTGAC (site AACGTGTCTGT) | 0
36 | AAAGTGTCATGGACCGGTTTTCCCGGTAATCCGTATTTGAC (site AAGGTGTCTGT) | 0
37 | AAAGTGTCATGGACCGGTTTTCCCGGTAATCCGTATTTGAC (site AATGTGTCTGT) | 0.497
38 | AAAGTTGCATGGACCGGTTTTCCCGGTAATCCGTATTTGAT (site AAAGTTGCTAT) | 2.62
39 | AAATCTACATGGACCGGTTTTCCCGGTAATCCGTATTTGTG (site AAATCTACTCA) | 0.209
40 | AAATCTACATGGACCGGTTTTCCCGGTAATCCGTATTTGTG (site ACATCTACTCA) | 0.0169
41 | AAATCTACATGGACCGGTTTTCCCGGTAATCCGTATTTGTG (site AGATCTACTCA) | 0.0155
42 | AAATCTACATGGACCGGTTTTCCCGGTAATCCGTATTTGTG (site ATATCTACTCA) | 0.0108
43 | AACAAGACATGGACCGGTTTTCCCGGTAATCCGTATTTGAC (site AACAAGACTGT) | 2.21
44 | AACAGTCCATGGACCGGTTTTCCCGGTAATCCGTATTTGAT (site AACAGTCCTAT) | 0.504
45 | AACAGTCCATGGACCGGTTTTCCCGGTAATCCGTATTTGAT (site AACCGTCCTAT) | 0.00935
46 | AACAGTCCATGGACCGGTTTTCCCGGTAATCCGTATTTGAT (site AACGGTCCTAT) | 0.0119
47 | AACAGTCCATGGACCGGTTTTCCCGGTAATCCGTATTTGAT (site AACTGTCCTAT) | 0
48 | AACCAAACATGGACCGGTTTTCCCGGTAATCCGTATTTGAG (site AACCAAACTCT) | 1.48

Row | Sequence | recombinant UMI read abundance (log10)
49 | AACCAAGCATGGACCGGTTTTCCCGGTAATCCGTATTTGAG (site AACCAAGCTCT) | 1.8
50 | AACCAAGCATGGACCGGTTTTCCCGGTAATCCGTATTTGAG (site ACCCAAGCTCT) | 0.33
51 | AACCAAGCATGGACCGGTTTTCCCGGTAATCCGTATTTGAG (site AGCCAAGCTCT) | 0.217
52 | AACCAAGCATGGACCGGTTTTCCCGGTAATCCGTATTTGAG (site ATCCAAGCTCT) | 0.642
53 | AACCACGCATGGACCGGTTTTCCCGGTAATCCGTATTTGGG (site AAACACGCTCC) | 0.0131
54 | AACCACGCATGGACCGGTTTTCCCGGTAATCCGTATTTGGG (site AACCACGCTCC) | 0.0319
55 | AACCACGCATGGACCGGTTTTCCCGGTAATCCGTATTTGGG (site AAGCACGCTCC) | 0
56 | AACCACGCATGGACCGGTTTTCCCGGTAATCCGTATTTGGG (site AATCACGCTCC) | 0.00485
57 | AACCGTACATGGACCGGTTTTCCCGGTAATCCGTATTTGAT (site AACCGTACTAT) | 1
58 | AACCGTACATGGACCGGTTTTCCCGGTAATCCGTATTTGAT (site AACCGTCCTAT) | 0.0158
59 | AACCGTACATGGACCGGTTTTCCCGGTAATCCGTATTTGAT (site AACCGTGCTAT) | 0.108
60 | AACCGTACATGGACCGGTTTTCCCGGTAATCCGTATTTGAT (site AACCGTTCTAT) | 0
61 | AACCGTCCATGGACCGGTTTTCCCGGTAATCCGTATTTGAC (site AACCGTCCTAT) | 0
62 | AACCGTCCATGGACCGGTTTTCCCGGTAATCCGTATTTGAC (site AACCGTCCTCT) | 0.0147
63 | AACCGTCCATGGACCGGTTTTCCCGGTAATCCGTATTTGAC (site AACCGTCCTGT) | 0.786
64 | AACCGTCCATGGACCGGTTTTCCCGGTAATCCGTATTTGAC (site AACCGTCCTTT) | 0.477
65 | AACCGTCCATGGACCGGTTTTCCCGGTAATCCGTATTTGAG (site AACCGTCCTAT) | 0.0112
66 | AACCGTCCATGGACCGGTTTTCCCGGTAATCCGTATTTGAG (site AACCGTCCTCT) | 0.0226
67 | AACCGTCCATGGACCGGTTTTCCCGGTAATCCGTATTTGAG (site AACCGTCCTGT) | 0
68 | AACCGTCCATGGACCGGTTTTCCCGGTAATCCGTATTTGAG (site AACCGTCCTTT) | 0.00366
69 | AACCGTCCATGGACCGGTTTTCCCGGTAATCCGTATTTGAT (site AAACGTCCTAT) | 0.00674
70 | AACCGTCCATGGACCGGTTTTCCCGGTAATCCGTATTTGAT (site AACAGTCCTAT) | 0.0027
71 | AACCGTCCATGGACCGGTTTTCCCGGTAATCCGTATTTGAT (site AACCATCCTAT) | 0.62
72 | AACCGTCCATGGACCGGTTTTCCCGGTAATCCGTATTTGAT (site AACCCTCCTAT) | 0.00675
